{
  "source": "patent EP1263429B1",
  "about": "“ANTIVIRAL THERAPY” (Universiteit Utrecht, priority 2000, dated 2001)",
  "key": {"[1]": {"tested_on": "HIV-1Ba-L", "experiment": "HIV-1 production by chronically infected MDM, p24-core antigen ELISA", "format": "cell-based", "details": "Fig 6D; APHS added 5 days after infection, 2 days of incubation", "procedure": "(A, B) Peripheral blood mononuclear cells (PBMC) were isolated from heparinized blood from HIV-1-, HIV-2-, and hepatitis B-seronegative donors and obtained on Ficoll-Hypaque density gradients. Cells were washed twice, stimulated with 5 µg/ml phytohemagglutinin (PHA), and cultured m RPMI-1640 medium supplemented with 5 mM Hepes, 19 mM sodium bicarbonate, 10 µg/mL gentamicin, and 10% heat-inactivated fetal calf serum (PBMC culture medium) at a concentration of 2 x 10^6 cells/ml. After 3 days of incubation stimulated PBMC were recovered from the flasks and infected for 2 hours with HIV-1Ba-L at a multiplicity of infection of 0.01. Afterwards, HIV-infected and mock-infected PBMC were washed twice to remove unbound virus. […] (B) PBMC were cultured in suspension at a concentration of 2 x 10^6 cells/ml in Teflon flasks in PBMC culture medium. […] After 2 days of incubation samples of culture supernatant were collected. p24-core antigen production was quantified using the enzyme-linked immunosorbent assay (ELISA) system of John Moore. […] (C, D) PBMC were isolated from heparinized blood from HIV-1-, HIV-2-, and hepatitis B-seronegative donors and obtained on Ficoll-Hypaque density gradients. […] After 2 days of incubation samples of culture supernatant were collected. p24-core antigen production was quantified using the enzyme-linked immunosorbent assay (ELISA) system of John Moore. […]"}, "[2]": {"tested_on": "HIV-1Ba-L", "experiment": "HIV-1 replication in acutely infected monocyte-derived macrophages (MDM), p24-core antigen ELISA", "format": "cell-based", "procedure": "PBMC are isolated from heparinized blood from HIV-1-, HIV-2-, and hepatitis B-seronegative donors and obtained on Ficoll-Hypaque density gradients. Cells are washed twice and monocytes are purified by countercurrent centrifugal elutriation. Cells are >98% monocytes by criteria of cell morphology on May-Grünwald-Giemsa-stained cytosmears and by nonspecific esterase staining using alpha-naphtylacetate (Sigma Chemical Co., St. Louis, MO) as substrate. Monocytes are cultured in suspension at a concentration of 2 x 10^6 cells/ml in Teflon flasks (Nalgene, Rochester, NY) in Iscove's modified Dulbeco's medium (IMDM) with 10% heat-inactivated human AB serum negative for anti-HIV antibodies, […], and […] (Sigma) for 7 days.\nHIV-1 strain Ba-L is grown to high titer in MDM. The 50% tissue culture infectious dose (TCID50) of the virus stock is determined by endpoint dilution with serial fourfold dilutions in a 96-well microtiter plate on MDM. […] The TCID50 of the virus stock is determined by endpoint dilution with serial fourfold dilutions in a 96-well microtiter plate on PBMC.\nMDM, and PBMC, were incubated with HIV at a multiplicity of infection of 0.02, and 0.006 or 0.001, respectively. […] The presence of HIV-1 in the inactivated supernatant is monitored by checking for the p24-core antigen using the enzyme-linked immunosorbent assay (ELISA) system of John Moore. […]"}},
  "data": [
    {"smiles": "CCCCC#CCSc1ccccc1OC(C)=O", "note": "[APHS, o-(acetoxy-phenyl)hept-2-ynyl sulphide]", "values": [
      {"measurement": "inhibition of HIV-1 production by chronically infected MDM", "setting": "[1]", "result": "does not inhibit"},
      {"measurement": "APHS concentrations that inhibit p24 production by acutely infected MDM", "setting": "[2]; 96 h", "result": "above 3 :M"},
      {"measurement": "inhibition at 30 µM", "setting": "[2]; Human immunodeficiency virus 1, Macrophage, 30 µM APHS, Fig 2, MDM, multiplicity of infection 0.02", "result": 88, "unit": "%"}
    ]}
  ]
}
